Results as given in patent US10266526B2, “Substituted 1,2,3-triazoles as SMYD inhibitors for treating cancer” (EPIZYME, INC., priority 2014, dated 2019).

The molecules below were run against SMYD3 (Homo sapiens (Human), UniProt Q9H7B4) (assay: SMYD3 biochemical assay (SMYD3 enzyme assay on MEKK2 protein substrate, 3H-SAM scintillation proximity assay)). Conditions: read-out: SMYD3 Biochem IC50.
Summary of the method: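 Detection used scintillation proximity beads to capture ³H-methylated GST-MEKK2 after quench with 100 uM final cold SAM. The reaction was started by SAM/MEKK2 addition after a 30 min RT compound–enzyme preincubation. Enzyme was tag-free full-length human SMYD3 from E. coli, in buffer of 25 mM Tris-Cl pH 8.0, 1 mM TCEP, 0.005% BSG, 0.005% Tween 20.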

Chain of SMYD3 (Q9H7B4 whole entry): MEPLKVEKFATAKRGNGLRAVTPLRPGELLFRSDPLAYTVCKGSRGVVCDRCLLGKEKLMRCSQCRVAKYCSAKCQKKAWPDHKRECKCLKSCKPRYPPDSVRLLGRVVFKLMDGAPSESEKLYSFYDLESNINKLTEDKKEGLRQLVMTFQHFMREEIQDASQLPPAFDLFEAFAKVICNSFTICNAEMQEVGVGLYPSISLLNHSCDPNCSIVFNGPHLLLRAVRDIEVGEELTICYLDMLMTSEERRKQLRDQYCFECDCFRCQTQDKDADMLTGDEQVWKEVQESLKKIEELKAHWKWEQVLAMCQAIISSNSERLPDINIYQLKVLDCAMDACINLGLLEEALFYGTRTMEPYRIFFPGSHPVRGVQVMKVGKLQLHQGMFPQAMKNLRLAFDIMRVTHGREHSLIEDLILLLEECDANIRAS

Row | IC50 | Structure (SMILES)
1 | > 100 µM | CC(NC(=O)c1ccc2c(c1)OC(F)(F)O2)C1CCN(C(=O)[C@H](C)N)CC1 (stereo partly drawn) [compound 284, N-(1-(1-(L-alanyl)piperidin-4-yl)ethyl)-2,2-difluorobenzo[d][1,3]dioxole-5-carboxamide]
2 | > 100 µM | NCCC(=O)N[C@H]1CC[C@H](NC(=O)C2C[C@@H]3C=C[C@H]2C3)CC1 (stereo partly drawn) [compound 416, (1R,4R)-N-((1r,4R)-4-(3-aminopropanamido)cyclohexyl)bicyclo[2.2.1]hept-5-ene-2-carboxamide]
3 | > 100 µM | CC(NC(=O)c1c[nH]c2ccccc12)C1CCN(C(=O)[C@H](C)N)CC1 (stereo partly drawn) [compound 268, N-(1-(1-(L-alanyl)piperidin-4-yl)ethyl)-1H-indole-3-carboxamide]
4 | > 100 µM | CC(NC(=O)c1ccc(N)cn1)C1CCN(C(=O)[C@H](C)N)CC1 (stereo partly drawn) [compound 357, N-(1-(1-(L-alanyl)piperidin-4-yl)ethyl)-5-aminopicolinamide]
5 | > 100 µM | Cc1c(C(=O)N[C@H]2CC[C@H](N)CC2)nnn1-c1ccccc1 [compound 273, N-((1r,4r)-4-aminocyclohexyl)-5-methyl-1-phenyl-1H-1,2,3-triazole-4-carboxamide]
6 | > 100 µM | CC(NC(=O)C1=NNC(=O)CC1)C1CCN(C(=O)[C@H](C)N)CC1 (stereo partly drawn) [compound 311, N-(1-(1-(L-alanyl)piperidin-4-yl)ethyl)-6-oxo-1,4,5,6-tetrahydropyridazine-3-carboxamide]
7 | > 50 µM | CC(NC(=O)c1cncc(O)c1)C1CCN(C(=O)[C@H](C)N)CC1 (stereo partly drawn) [compound 513, N-(1-(1-(L-alanyl)piperidin-4-yl)ethyl)-5-hydroxynicotinamide]
8 | > 100 µM | CC(NC(=O)c1cc(=O)c2ccccc2o1)C1CCN(C(=O)[C@H](C)N)CC1 (stereo partly drawn) [compound 224, N-(1-(1-(L-alanyl)piperidin-4-yl)ethyl)-4-oxo-4H-chromene-2-carboxamide]
9 | > 100 µM | N[C@H]1CC[C@H](NC(=O)[C@H]2CC[C@H](N)CC2)CC1 [compound 304, (1r,4r)-4-amino-N-((1r,4r)-4-aminocyclohexyl)cyclohexane-1-carboxamide]
10 | > 100 µM | COc1cnc(C(=O)NC(C)C2CCN(C(=O)[C@H](C)N)CC2)cn1 (stereo partly drawn) [compound 302, N-(1-(1-(L-alanyl)piperidin-4-yl)ethyl)-5-methoxypyrazine-2-carboxamide]
11 | > 100 µM | NCCC(=O)N[C@H]1CC[C@H](NC(=O)c2ccnc(O)c2)CC1 [compound 376, N-((1r,4r)-4-(3-aminopropanamido)cyclohexyl)-2-hydroxyisonicotinamide]

Same assay, conditions: read-out: SMYD3 Biochem IC50 (μM)*

Row | IC50 | Structure (SMILES)
12 | 65.8 µM | N[C@H]1CC[C@H](NC(=O)c2ccc3c(c2)CCC(=O)N3)CC1 [compound 74, N-((1r,4r)-4-aminocyclohexyl)-2-oxo-1,2,3,4-tetrahydroquinoline-6-carboxamide]
13 | 98.2 µM | NCCC(=O)N[C@H]1CC[C@H](NC(=O)c2ccc3c(c2)OCO3)CC1 [compound 147, N-((1r,4r)-4-(3-aminopropanamido)cyclohexyl)benzo[d][1,3]dioxole-5-carboxamide]
14 | 49.9 µM | CCc1ccc(C(=O)N[C@H]2CC[C@H](N)CC2)s1 [compound 54, N-((1r,4r)-4-aminocyclohexyl)-5-ethylthiophene-2-carboxamide]
15 | 60.5 µM | CC(=O)Nc1ccc(S(=O)(=O)N2CCC(NC(=O)c3cn(C)cn3)CC2)cc1 [compound 9, N-(1-((4-acetamidophenyl)sulfonyl)piperidin-4-yl)-1-methyl-1H-imidazole-4-carboxamide]
16 | > 100 µM | Cc1nc(-c2ccc(C(=O)N[C@H]3CC[C@H](NC(=O)CCN)CC3)cc2)no1 [compound 136, N-((1r,4r)-4-(3-aminopropanamido)cyclohexyl)-4-(5-methyl-1,2,4-oxadiazol-3-yl)benzamide]
17 | 111 µM | Cc1cc(C(=O)N[C@H]2CC[C@H](N)CC2)n(-c2ccccc2)n1 [compound 28, N-((1r,4r)-4-aminocyclohexyl)-3-methyl-1-phenyl-1H-pyrazole-5-carboxamide]
